Experimental data: PubChem BioAssay AID256 (DTP/NCI, 2004)
“And” between values parts separate entries of the source, which are not always exact repeats. Identical values can stand only once. Inconclusive results and toxic doses are left out. Rule for the calls: active = survival T/C of 150% or more; inactive = T/C below 125% in these data.

Tested on: CD2F1 mice, L1210 leukemia ip, survival T/C
Test: NCI In Vivo Anticancer Drug Screen. Data for tumor model L1210 Leukemia (intraperitoneal) in CD2F1 (CDF1) mice
Conditions: higher = longer survival
Method in brief: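 Activity against a transplanted murine tumor was judged by comparing the compound group with a vehicle group. The outcome in the treated animals was divided by that in the controls.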

[1] = endpoint: mean survival time, dose: 100.0 mg/kg/injection, schedule: Q04DX002 (ip), vehicle: saline with Tween-80
[2] = endpoint: mean survival time, dose: 100.0 mg/kg/injection, schedule: Q04DX003 (ip), vehicle: saline with Tween-80
[3] = endpoint: mean survival time, dose: 200.0 mg/kg/injection, schedule: Q04DX003 (ip), vehicle: saline with Tween-80
[4] = endpoint: mean survival time, dose: 100.0 mg/kg/injection, schedule: Q01DX001 (ip), vehicle: saline
[5] = endpoint: mean survival time, dose: 200.0 mg/kg/injection, schedule: Q01DX001 (ip), vehicle: saline
[6] = endpoint: mean survival time, dose: 100.0 mg/kg/injection, schedule: Q01DX001 (ip), vehicle: saline with Tween-80
[7] = endpoint: mean survival time, dose: 100.0 mg/kg/injection, schedule: Q01DX009 (ip), vehicle: saline with Tween-80
[8] = endpoint: mean survival time, dose: 200.0 mg/kg/injection, schedule: Q01DX001 (ip), vehicle: saline with Tween-80
[9] = endpoint: mean survival time, dose: 200.0 mg/kg/injection, schedule: Q01DX009 (ip), vehicle: saline with Tween-80
[10] = endpoint: mean survival time, dose: 12.5 mg/kg/injection, schedule: Q01DX009 (ip), vehicle: saline with Tween-80
[11] = endpoint: mean survival time, dose: 25.0 mg/kg/injection, schedule: Q01DX009 (ip), vehicle: saline with Tween-80
[12] = endpoint: mean survival time, dose: 50.0 mg/kg/injection, schedule: Q01DX009 (ip), vehicle: saline with Tween-80

Measured: T/C

C/C=C/C=C/c1cc2cc3c(c(O)c2c(=O)[nH]1)C1(CC3)C(O)=c2c(=O)c3c(=O)cc(OC)c(=O)c=3c(=O)c2=C1O (stereo not given)
inactive: endpoint: mean survival time, dose: 0.06 mg/kg/injection, schedule: Q01DX009 (ip), vehicle: DMSO 90 % of control and 93 % of control and 108 % of control | endpoint: mean survival time, dose: 0.06 mg/kg/injection, schedule: Q01DX009 (ip), vehicle: Klucel (hydroxypropylcellulose) (HPC) 97 % of control | endpoint: mean survival time, dose: 0.12 mg/kg/injection, schedule: Q01DX009 (ip), vehicle: DMSO 113 % of control and 107 % of control | endpoint: mean survival time, dose: 0.12 mg/kg/injection, schedule: Q01DX009 (ip), vehicle: Klucel (hydroxypropylcellulose) (HPC) 98 % of control | endpoint: mean survival time, dose: 0.25 mg/kg/injection, schedule: Q01DX009 (ip), vehicle: DMSO 118 % of control | endpoint: mean survival time, dose: 0.25 mg/kg/injection, schedule: Q01DX009 (ip), vehicle: Klucel (hydroxypropylcellulose) (HPC) 98 % of control | endpoint: mean survival time, dose: 0.5 mg/kg/injection, schedule: Q01DX009 (ip), vehicle: DMSO 94 % of control | endpoint: mean survival time, dose: 0.5 mg/kg/injection, schedule: Q01DX009 (ip), vehicle: Klucel (hydroxypropylcellulose) (HPC) 98 % of control | endpoint: mean survival time, dose: 1.0 mg/kg/injection, schedule: Q01DX009 (ip), vehicle: Klucel (hydroxypropylcellulose) (HPC) 98 % of control | endpoint: mean survival time, dose: 2.0 mg/kg/injection, schedule: Q01DX009 (ip), vehicle: Klucel (hydroxypropylcellulose) (HPC) 104 % of control | endpoint: median survival time, dose: 0.03 mg/kg/injection, schedule: Q01DX009 (ip), vehicle: DMSO 89 % of control

O=[n+]1ccn([O-])c2ccccc21
inactive: [1] 111 % of control | endpoint: mean survival time, dose: 200.0 mg/kg/injection, schedule: Q04DX002 (ip), vehicle: saline with Tween-80 105 % of control

COc1ccc2c(c1)C=CC(C#N)N2 (stereo not given)
inactive: [2] 87 % of control | [3] 91 % of control

Cn1nc2ccccc2c1C#N
inactive: endpoint: mean survival time, dose: 50.0 mg/kg/injection, schedule: Q01DX001 (ip), vehicle: saline 102 % of control | [4] 103 % of control | [5] 96 % of control

CC(O)c1ccc2c(c1)N(CCCN1CCN(CCO)CC1)c1ccccc1S2 (stereo not given)
inactive: endpoint: mean survival time, dose: 100.0 mg/kg/injection, schedule: Q04DX003 (ip), vehicle: saline 97 % of control

CC(C)(C(=O)c1ccccc1)C(=O)c1ccccc1
inactive: endpoint: mean survival time, dose: 50.0 mg/kg/injection, schedule: Q01DX001 (ip), vehicle: saline with Tween-80 104 % of control | [6] 102 % of control | [7] 100 % of control | [8] 100 % of control | [9] 94 % of control | endpoint: mean survival time, dose: 400.0 mg/kg/injection, schedule: Q01DX009 (ip), vehicle: saline with Tween-80 98 % of control

O=C1OC2CC1(O)CC(O)C2O (stereo not given)
inactive: [6] 96 % of control | [8] 89 % of control

O=c1[nH]c(-c2ccccc2)nc(-c2ccccc2)c1Cc1cc2c(cc1O)OCC2
inactive: [4] 103 % of control | [5] 92 % of control | endpoint: mean survival time, dose: 400.0 mg/kg/injection, schedule: Q01DX001 (ip), vehicle: saline 92 % of control

[Cl][Pt+2][Cl].[NH-]C1CCCCC1[NH-] (stereo not given)
inactive: endpoint: mean survival time, dose: 0.39 mg/kg/injection, schedule: Q04DX003 (ip), vehicle: saline with Tween-80 124 % of control | endpoint: mean survival time, dose: 1.56 mg/kg/injection, schedule: Q04DX002 (ip), vehicle: saline 119 % of control and 124 % of control | endpoint: median survival time, dose: 20.0 mg/kg/injection, schedule: Q04DX003 (ip), vehicle: saline 100 % of control

COC(=O)C(Br)CCC(Br)C(=O)OC (stereo not given)
inactive: endpoint: mean survival time, dose: 50.0 mg/kg/injection, schedule: Q04DX003 (ip), vehicle: saline with Tween-80 94 % of control | [7] 95 % of control | [2] 94 % of control | [9] 103 % of control | [3] 94 % of control

OC1CCN(c2c3ccccc3nc3ccccc23)CC1
inactive: endpoint: mean survival time, dose: 12.5 mg/kg/injection, schedule: Q04DX002 (ip), vehicle: saline 100 % of control | endpoint: mean survival time, dose: 25.0 mg/kg/injection, schedule: Q04DX002 (ip), vehicle: saline 100 % of control | endpoint: mean survival time, dose: 50.0 mg/kg/injection, schedule: Q04DX002 (ip), vehicle: saline 116 % of control

O=C(O)C1(NO)CCCCC1
inactive: endpoint: mean survival time, dose: 12.5 mg/kg/injection, schedule: Q01DX009 (ip), vehicle: Klucel (hydroxypropylcellulose) (HPC) 102 % of control | endpoint: mean survival time, dose: 25.0 mg/kg/injection, schedule: Q01DX009 (ip), vehicle: Klucel (hydroxypropylcellulose) (HPC) 101 % of control | endpoint: mean survival time, dose: 50.0 mg/kg/injection, schedule: Q01DX009 (ip), vehicle: Klucel (hydroxypropylcellulose) (HPC) 103 % of control | endpoint: mean survival time, dose: 100.0 mg/kg/injection, schedule: Q01DX009 (ip), vehicle: Klucel (hydroxypropylcellulose) (HPC) 100 % of control | endpoint: mean survival time, dose: 200.0 mg/kg/injection, schedule: Q01DX009 (ip), vehicle: Klucel (hydroxypropylcellulose) (HPC) 97 % of control | endpoint: mean survival time, dose: 400.0 mg/kg/injection, schedule: Q01DX009 (ip), vehicle: Klucel (hydroxypropylcellulose) (HPC) 102 % of control

C=C(Br)CNC(=O)C(C)(C)C
inactive: [10] 96 % of control | [11] 96 % of control | [12] 100 % of control | [7] 93 % of control

CSc1nc(SC)c2c3c(N)ncnc3n(C3OC(CO)C(O)C3O)c2n1 (stereo not given)
inactive: endpoint: mean survival time, dose: 12.5 mg/kg/injection, schedule: Q01DX005 (ip), vehicle: other 107 % of control | endpoint: mean survival time, dose: 25.0 mg/kg/injection, schedule: Q01DX005 (ip), vehicle: other 121 % of control | endpoint: mean survival time, dose: 100.0 mg/kg/injection, schedule: Q01DX005 (ip), vehicle: other 119 % of control | endpoint: mean survival time, dose: 250.0 mg/kg/injection, schedule: Q01DX005 (ip), vehicle: other 121 % of control

O=C(N/N=C/c1ccc2c(c1)OCO2)c1cccc(C(F)(F)F)c1
inactive: [10] 95 % of control | [11] 91 % of control | [12] 91 % of control and 104 % of control | [9] 89 % of control

O=C(O)CCC(NC(=O)COc1ccc(Cl)cc1Cl)C(=O)O (stereo not given)
inactive: endpoint: mean survival time, dose: 25.0 mg/kg/injection, schedule: Q04DX002 (ip), vehicle: saline with Tween-80 100 % of control | endpoint: mean survival time, dose: 50.0 mg/kg/injection, schedule: Q04DX002 (ip), vehicle: saline with Tween-80 95 % of control | [1] 100 % of control and 101 % of control | endpoint: mean survival time, dose: 400.0 mg/kg/injection, schedule: Q04DX002 (ip), vehicle: saline with Tween-80 93 % of control

ClC1CC[N-]CC1.ClC1CC[N-]CC1.[Cl][Pt+2]([Cl])([Cl])[Cl]
inactive: endpoint: mean survival time, dose: 12.5 mg/kg/injection, schedule: Q01DX009 (ip), vehicle: water 123 % of control | endpoint: mean survival time, dose: 25.0 mg/kg/injection, schedule: Q01DX009 (ip), vehicle: water 110 % of control
